Data published in US10000500B2 (PROMEGA CORPORATION, priority 2016, dated 2018).

Molecular target: NANOLUC® Luciferase (Oplophorus gracilirostris, UniProt Q9GV45, A31E/A60N/A81I/F95D/I117V/K70R/L54V/L99Q/M102K/N193R/P142E/Q151K/Q38R/Q45L/V71I/Y165I)
Test: Luminescence assay with purified NANOLUC luciferase (Example 7)
Assay type: biochemical
Conditions: bioluminescence with NANOLUC luciferase
Protocol: Each compound to be screened was dissolved in DMSO (5 mM) and then further diluted to 100 uM in NANO-GLO® Luciferase Assay Buffer. Each diluted substrate was then combined in equal volumes with purified NANOLUC® Luciferase diluted into CO2 independent media+10% FBS. Initial light output for each substrate was measured in a GLOMAXI-Multi+luminometer three minutes after substrate addition and then at five minute intervals as a means to determine signal half-life.
The synthesized coelenterazine analogues (compounds of formula (I) and (II)) were evaluated for their suitability as luciferase substrates. NANOLUC® luciferase was employed for the screening because it is a small (19 kDa), stable, and particularly bright enzyme.

Sequence of NANOLUC® Luciferase (Q9GV45 28-196 with tags or gaps with the stated changes limits assumed): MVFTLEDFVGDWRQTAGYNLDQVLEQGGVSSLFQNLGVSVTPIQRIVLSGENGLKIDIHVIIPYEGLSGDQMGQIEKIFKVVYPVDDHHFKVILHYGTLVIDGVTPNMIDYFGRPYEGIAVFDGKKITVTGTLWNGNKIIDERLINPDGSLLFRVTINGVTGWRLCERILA

| Compound | λmax, nm [nm] |
| --- | --- |
| O=c1c(Cc2ccco2)nc2c(-c3ccnc(F)c3)[nH]c(-c3ccccc3)cn1-2 [AS-271, 8-(2-fluoropyridin-4-yl)-2-(furan-2-ylmethyl)-6-phenylimidazo[1,2-a]pyrazin-3(7H)-one] | 532 |
| O=c1c(Cc2ccco2)nc2c(-c3cccnc3F)[nH]c(-c3ccccc3)cn1-2 [AS-272, 8-(2-fluoropyridin-3-yl)-2-(furan-2-ylmethyl)-6-phenylimidazo[1,2-a]pyrazin-3(7H)-one] | 508 |
| O=c1c(Cc2ccco2)nc2c(-c3ccco3)[nH]c(-c3ccco3)cn1-2 [AS-175, 6,8-di(furan-2-yl)-2-(furan-2-ylmethyl)imidazo[1,2-a]pyrazin-3(7H)-one] | 514 |
| Nc1ccc(-c2cn3c(=O)c(Cc4ccco4)nc-3c(-c3ccnc4ccccc34)[nH]2)cc1 [AS-330, 6-(4-aminopheny1)-2-(furan-2-ylmethyl)-8-(quinolin-4-yl)imidazo[1,2-a]pyrazin-3(7H)-one] | 583 |
| O=c1c(Cc2ccco2)nc2c(-c3ccnc(Cl)c3)[nH]c(-c3ccccc3)cn1-2 [AS-275, 8-(2-chloropyridin-4-yl)-2-(furan-2-ylmethyl)-6-phenylimidazo[1,2-a]pyrazin-3(7H)-one] | 535 |
| O=c1c(Cc2ccco2)nc2c(-c3ccncc3)[nH]c(-c3ccccc3)cn1-2 [AS-276, 2-(furan-2-ylmethyl)-6-phenyl-8-(pyridin-4-yl)imidazo[1,2-a]pyrazin-3(7H)-one] | 523 |
| O=c1c(Cc2ccco2)nc2c(-c3ccnc(Cl)c3)[nH]c3c(n1-2)CCc1ccccc1-3 [AS-342, 12-(2-chloropyridin-4-yl)-2-(furan-2-ylmethyl)-5,11-dihydrobenzo[f]imidazo[1,2-a]quinoxalin-3(6H)-one] | 538 |
| O=c1c(Cc2ccco2)nc2c(-c3ccc4scnc4c3)[nH]c(-c3ccccc3)cn1-2 [AS-250, 8-(benzo[d]thiazol-5-yl)-2-(furan-2-ylmethyl)-6-phenylimidazo[1,2-a]pyrazin-3(7H)-one] | 511 |
| O=c1c(Cc2ccco2)nc2c(-c3cc(F)c(F)c(F)c3)[nH]c(-c3ccccc3)cn1-2 [AS-270, 2-(furan-2-ylmethyl)-6-pheny1-8-(3,4,5-trifluorophenyl)imidazo[1,2-a]pyrazin-3(7H)-one] | 502 |
| O=c1c(Cc2ccco2)nc2c(-c3ccsc3)[nH]c(-c3ccccc3)cn1-2 [AS-229, 2-(furan-2-ylmethyl)-6-phenyl-8-(thiophen-3-yl)imidazo[1,2-a]pyrazin-3(7H)-one] | 496 |
| O=c1c(Cc2ccco2)nc2c(-c3ccnc(Br)c3)[nH]c(-c3ccccc3)cn1-2 [AS-314, 8-(2-bromopyridin-4-yl)-2-(furan-2-ylmethyl)-6-phenylimidazo[1,2-a]pyrazin-3(7H)-one] | 538 |
| Cn1c(C#N)ccc1-c1[nH]c(-c2ccccc2)cn2c(=O)c(Cc3ccco3)nc1-2 [AS-311, 5-(2-(furan-2-ylmethyl)-3-oxo-6-phenyl-3,7-dihydroimidazo[1,2-a]pyrazin-8-yl)-1-methyl-1H-pyrrole-2-carbonitrile] | 505 |
| O=c1c(Cc2ccco2)nc2c(C#Cc3ccccc3)[nH]c(-c3ccccc3)cn1-2 [AS-242, 2-(furan-2-ylmethyl)-6-phenyl-8-(phenylethynyl)imidazo[1,2-a]pyrazin-3(7H)-one] | 517 |
| Nc1cccc(-c2cn3c(=O)c(Cc4ccco4)nc-3c(Cc3ccccc3)[nH]2)c1 [JRW-0438, 6-(3-aminophenyl)-8-benzyl-2-(furan-2-ylmethyl)imidazo[1,2-a]pyrazin-3(7H)-one] | 487 |
| O=c1c(Cc2ccco2)nc2c(-c3ccnc4ccccc34)[nH]c3c(n1-2)CCc1ccccc1-3 [AS-341, 2-(furan-2-ylmethyl)-12-(quinolin-4-yl)-5,11-dihydrobenzo[f]imidazo[1,2-a]quinoxalin-3(6H)-one] | 583 |
| O=c1c(Cc2ccco2)nc2c(-c3cccs3)[nH]c(-c3cccs3)cn1-2 [AS-176, 2-(furan-2-ylmethyl)-6,8-di(thiophen-2-yl)imidazo[1,2-a]pyrazin-3(7H)-one] | 496 |
| Nc1ccc(-c2cn3c(=O)c(Cc4ccco4)nc-3c(Cc3ccccc3)[nH]2)cc1 [JRW-0445, 6-(4-aminophenyl)-8-benzyl-2-(furan-2-ylmethyl)imidazo[1,2-a]pyrazin-3(7H)-one] | 502 |
| O=c1c(Cc2ccco2)nc2c(-c3cccnc3Cl)[nH]c(-c3ccccc3)cn1-2 [AS-278, 8-(2-chloropyridin-3-yl)-2-(furan-2-ylmethyl)-6-phenylimidazo[1,2-a]pyrazin-3(7H)-one] | 499 |
| Cn1cc(-c2[nH]c(-c3ccn(C)n3)cn3c(=O)c(Cc4ccco4)nc2-3)cn1 [AS-190, 2-(furan-2-ylmethyl)-6-(1-methyl-1H-pyrazol-3-yl)-8-(1-methyl-1H-pyrazol-4-yl)imidazo[1,2-a]pyrazin-3(7H)-one] | 496 |

| Compound | λmax, nm [nm] |
| --- | --- |
| N#Cc1cccc(-c2[nH]c(-c3ccccc3)cn3c(=O)c(Cc4ccco4)nc2-3)c1 [AS-274, 3-(2-(furan-2-ylmethyl)-3-oxo-6-phenyl-3,7-dihydroimidazo[1,2-a]pyrazin-8-yl)benzonitrile] | 514 |
| O=c1c(Cc2ccco2)nc2c(-c3sccc3Cl)[nH]c(-c3ccccc3)cn1-2 [AS-282, 8-(3-chlorothiophen-2-yl)-2-(furan-2-ylmethyl)-6-phenylimidazo[1,2-a]pyrazin-3(7H)-one] | 505 |
| N#Cc1c(-c2ccccc2)[nH]c(-c2ccnc(F)c2)c2nc(Cc3ccco3)c(=O)n1-2 [AS-301, 8-(2-fluoropyridin-4-yl)-2-(furan-2-ylmethyl)-3-oxo-6-phenyl-3,7-dihydroimidazo[1,2-a]pyrazine-5-carbonitrile] | 529 |
| O=c1c(Cc2ccco2)nc2c(-c3cccc4ccccc34)[nH]c(-c3ccccc3)cn1-2 [AS-215, 2-(furan-2-ylmethyl)-8-(naphthalen-1-yl)-6-phenylimidazo[1,2-a]pyrazin-3(7H)-one] | 517 |
| O=c1c(Cc2ccco2)nc2c(-c3ccc(F)nc3)[nH]c(-c3ccccc3)cn1-2 [AS-273, 8-(6-fluoropyridin-3-yl)-2-(furan-2-ylmethyl)-6-phenylimidazo[1,2-a]pyrazin-3(7H)-one] | 496 |
| O=c1c(Cc2ccco2)nc2c(-c3cccnc3)[nH]c(-c3ccccc3)cn1-2 [AS-277, 2-(furan-2-ylmethyl)-6-phenyl-8-(pyridin-3-yl)imidazo[1,2-a]pyrazin-3(7H)-one] | 517 |
| N#Cc1ccc(-c2[nH]c3c(n4c(=O)c(Cc5ccco5)nc2-4)CCc2ccccc2-3)s1 [AS-340, 5-(2-(furan-2-ylmethyl)-3-oxo-3,5,6,11-tetrahydrobenzo[f]imidazo[1,2-a]quinoxalin-12-yl)thiophene-2-carbonitrile] | 574 |
| N#Cc1ccc(-c2[nH]c(-c3ccc(N)cc3)cn3c(=O)c(Cc4ccco4)nc2-3)s1 [AS-332, 5-(6-(4-aminophenyl)-2-(furan-2-ylmethyl)-3-oxo-3,7-dihydroimidazo[1,2-a]pyrazin-8-yl)thiophene-2-carbonitrile] | 598 |
| Nc1ccc(-c2cn3c(=O)c(Cc4ccco4)nc-3c(-c3ccnc(Cl)c3)[nH]2)cc1 | 571 |
| Nc1ccccc1-c1cn2c(=O)c(Cc3ccco3)nc-2c(Cc2ccccc2)[nH]1 [JRW-0446, 6-(2-aminophenyl)-8-benzyl-2-(furan-2-ylmethyl)imidazo[1,2-a]pyrazin-3(7H)-one] | 487 |
| O=c1c(Cc2ccco2)nc2c(-c3ccc(F)cc3)[nH]c(-c3ccccc3)cn1-2 [AS-269, 8-(4-fluorophenyl)-2-(furan-2-ylmethyl)-6-phenylimidazo[1,2-a]pyrazin-3(7H)-one] | 490 |
| CN(C)c1ccc(-c2[nH]c(-c3ccccc3)cn3c(=O)c(Cc4ccco4)nc2-3)cc1 [AS-224, 8-(4-(dimethylamino)phenyl)-2-(furan-2-ylmethyl)-6-phenylimidazo[1,2-a]pyrazin-3(7H)-one] | 502 |
| O=c1c(Cc2ccco2)nc2c(-c3ccc(Cl)s3)[nH]c(-c3ccccc3)cn1-2 [AS-280, 8-(5-chlorothiophen-2-yl)-2-(furan-2-ylmethyl)-6-phenylimidazo[1,2-a]pyrazin-3(7H)-one] | 523 |
| N#Cc1ccc(-c2[nH]c(-c3ccccc3)cn3c(=O)c(Cc4ccco4)nc2-3)cc1 [AS-237, 4-(2-(furan-2-ylmethyl)-3-oxo-6-phenyl-3,7-dihydroimidazo[1,2-a]pyrazin-8-yl)benzonitrile] | 559 |
| O=c1c(Cc2ccco2)nc2c(-c3ccccc3)[nH]c(-c3ccccc3)c(-c3ccccc3)n1-2 [AS-248, 2-(furan-2-ylmethyl)-5,6,8-triphenylimidazo[1,2-a]pyrazin-3(7H)-one] | 520 |
| O=c1c(Cc2ccco2)nc2c(-c3ccnc(F)c3)[nH]c(-c3cccs3)cn1-2 [AS-306, 8-(2-fluoropyridin-4-yl)-2-(furan-2-ylmethyl)-6-(thiophen-2-yl)imidazo[1,2-a]pyrazin-3(7H)-one] | 544 |
| Cn1cc(-c2[nH]c(-c3ccccc3)cn3c(=O)c(Cc4ccco4)nc2-3)ccc1=O [AS-256, 2-(furan-2-ylmethyl)-8-(1-methyl-6-oxo-1,6-dihydropyridin-3-yl)-6-phenylimidazo[1,2-a]pyrazin-3(7H)-one] | 496 |
| O=c1c(Cc2ccco2)nc2c(-c3cccs3)[nH]c(-c3ccccc3)cn1-2 [AS-236, 2-(furan-2-ylmethyl)-6-phenyl-8-(thiophen-2-yl)imidazo[1,2-a]pyrazin-3(7H)-one] | 514 |
